Molecular target: baculovirus-expressed ALK (Homo sapiens, UniProt Q9UM73)
Test: ALK Kinase Assay (ELISA/TRF, PLC-γ substrate); also: 1 µM ATP (Km level)
Format: biochemical
Settings: read-out: ALK Kinase Inhibition (IC50)
Procedure: Example compounds were tested for their ability to inhibit the kinase activity of baculovirus-expressed ALK using a modification of the ELISA protocol reported for trkA in Angeles, T. S. et al., Anal. Biochem. 1996, 236, 49-55, which is incorporated herein by reference in its entirety. Phosphorylation of the substrate, phospholipase C-gamma (PLC-γ) generated as a fusion protein with glutathione S-transferase (GST) as reported in Rotin, D. et al., EMBO J. 1992, 11, 559-567, which is incorporated herein by reference in its entirety, was detected with a europium-labeled anti-phosphotyrosine antibody and measured by time-resolved fluorescence (TRF). Briefly, each 96-well plate was coated with 100 μL/well of 10 μg/mL substrate (phospholipase C-γ) in Tris-buffered saline (TBS). […] The reaction was initiated by adding enzyme (30 ng/ml ALK) and was allowed to proceed at 37° C. for 15 minutes. Detection of the phosphorylated product was performed by adding 100 μl/well of Eu-N1 labeled PT66 antibody (Perkin Elmer # AD0041). Incubation at 37° C. then proceeded for one (1) hour, followed by addition of 100 μL enhancement solution (Wallac #1244-105). The plate was gently agitated and after thirty minutes, the fluorescence of the resulting solution was measured using the EnVision 2100 (or 2102) multilabel plate reader (Perkin Elmer).
Data analysis was performed using ActivityBase (IDBS, Guilford, UK). IC50 values were calculated by plotting percent inhibition versus log10 of the concentration of compound and fitting to the nonlinear regression sigmoidal dose-response (variable slope) equation in XLFit (IDBS, Guilford, UK).

Chain of baculovirus-expressed ALK (Q9UM73 19-1620): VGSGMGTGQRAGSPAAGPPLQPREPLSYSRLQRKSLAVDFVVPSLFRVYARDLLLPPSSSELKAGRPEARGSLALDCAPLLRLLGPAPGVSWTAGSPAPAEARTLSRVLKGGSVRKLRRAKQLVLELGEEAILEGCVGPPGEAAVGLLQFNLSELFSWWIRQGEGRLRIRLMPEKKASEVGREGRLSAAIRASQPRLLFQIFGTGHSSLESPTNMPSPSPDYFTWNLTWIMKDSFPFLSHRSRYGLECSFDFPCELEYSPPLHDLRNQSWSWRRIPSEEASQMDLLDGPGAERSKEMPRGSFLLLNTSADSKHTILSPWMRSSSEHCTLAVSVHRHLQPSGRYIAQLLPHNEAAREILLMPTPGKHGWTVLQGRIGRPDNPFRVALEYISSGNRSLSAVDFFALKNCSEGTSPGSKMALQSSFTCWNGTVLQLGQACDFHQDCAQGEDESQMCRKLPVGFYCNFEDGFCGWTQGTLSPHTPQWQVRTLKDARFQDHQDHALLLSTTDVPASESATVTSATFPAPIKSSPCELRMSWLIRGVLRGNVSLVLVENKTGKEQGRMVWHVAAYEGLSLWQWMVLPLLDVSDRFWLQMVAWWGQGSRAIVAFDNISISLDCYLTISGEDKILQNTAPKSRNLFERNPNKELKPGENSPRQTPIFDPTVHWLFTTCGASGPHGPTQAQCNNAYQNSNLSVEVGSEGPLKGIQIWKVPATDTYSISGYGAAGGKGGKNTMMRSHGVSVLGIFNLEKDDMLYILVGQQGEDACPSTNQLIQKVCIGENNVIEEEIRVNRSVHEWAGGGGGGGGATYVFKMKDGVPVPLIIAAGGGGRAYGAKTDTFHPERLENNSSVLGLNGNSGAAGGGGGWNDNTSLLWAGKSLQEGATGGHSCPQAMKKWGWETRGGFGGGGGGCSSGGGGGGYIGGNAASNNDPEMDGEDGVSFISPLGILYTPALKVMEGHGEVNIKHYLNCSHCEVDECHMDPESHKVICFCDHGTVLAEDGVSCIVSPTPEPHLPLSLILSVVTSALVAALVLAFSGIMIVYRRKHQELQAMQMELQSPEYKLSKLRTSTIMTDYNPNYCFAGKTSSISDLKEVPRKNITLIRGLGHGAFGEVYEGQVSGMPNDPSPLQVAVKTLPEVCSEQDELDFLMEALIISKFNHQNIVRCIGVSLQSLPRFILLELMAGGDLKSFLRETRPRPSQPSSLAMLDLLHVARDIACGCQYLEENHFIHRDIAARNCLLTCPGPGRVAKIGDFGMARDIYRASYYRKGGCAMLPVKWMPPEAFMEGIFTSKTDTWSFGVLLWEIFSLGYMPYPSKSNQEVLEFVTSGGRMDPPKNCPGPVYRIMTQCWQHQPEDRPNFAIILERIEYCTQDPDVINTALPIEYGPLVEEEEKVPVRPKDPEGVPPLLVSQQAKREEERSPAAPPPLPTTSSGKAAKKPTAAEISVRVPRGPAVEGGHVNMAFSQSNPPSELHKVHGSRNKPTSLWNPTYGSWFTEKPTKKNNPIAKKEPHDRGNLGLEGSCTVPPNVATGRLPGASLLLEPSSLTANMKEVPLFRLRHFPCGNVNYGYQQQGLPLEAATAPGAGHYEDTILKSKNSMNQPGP

| Structure (SMILES) | IC50 [nM] |
| --- | --- |
| O=C(c1ccccc1)N1CCN(C(=O)c2cccc(-c3cnc4c(c3)N(Cc3cc(Cl)ccc3C(F)(F)F)CCN4)c2)CC1 [Example 323, (4-Benzoylpiperazin-1-yl)-(3-{1-[5-Chloro-2-(trifluoromethyl)benzyl]-1,2,3,4-tetrahydropyrido[2,3-b]pyrazin-7-yl}phenyl)methanone] | 100 to 1000 |
| O=C(NC1Cc2ccccc2C1)c1cccc(-c2cnc3c(c2)N(Cc2cc(Cl)ccc2C(F)(F)F)CCN3)c1 [Example 358, 3-{1-[5-Chloro-2-(trifluoromethyl)benzyl]-1,2,3,4-tetrahydropyrido[2,3-b]pyrazin-7-yl}-N-indan-2-ylbenzamide] | 100 to 1000 |
| O=C(c1cccc(-c2cnc3c(c2)N(Cc2cc(Cl)ccc2C(F)(F)F)CCN3)c1)N1CCC(Cc2ccccc2)CC1 [Example 316, (4-Benzylpiperidin-1-yl)-(3-{1-[5-Chloro-2-(trifluoromethyl)benzyl]-1,2,3,4-tetrahydropyrido[2,3-b]pyrazin-7-yl}phenyl)methanone] | 100 to 1000 |
| O=C(NCc1cccc2ccccc12)c1ccc(-c2cnc3c(c2)N(Cc2cc(Cl)ccc2C(F)(F)F)CCN3)cc1 [Example 409, 4-{1-[5-Chloro-2-(trifluoromethyl)benzyl]-1,2,3,4-tetrahydropyrido[2,3-b]pyrazin-7-yl}-N-naphthalen-1-ylmethylbenzamide] | 1000 to 10000 |
| O=C(c1cccc(-c2cnc3c(c2)N(Cc2cc(Cl)ccc2C(F)(F)F)CCN3)c1)N1CCN(Cc2ccc(Cl)cc2)CC1 [Example 321, [4-(4-Chlorobenzyl)piperazin-1-yl]-(3-{1-[5-Chloro-2-(trifluoromethyl)benzyl]-1,2,3,4-tetrahydropyrido[2,3-b]pyrazin-7-yl}phenyl)methanone] | 100 to 1000 |
| O=C(NCc1cccnc1)c1ccc(-c2cnc3c(c2)N(Cc2cc(Cl)ccc2C(F)(F)F)CCN3)cc1 [Example 401, 4-{1-[5-Chloro-2-(trifluoromethyl)benzyl]-1,2,3,4-tetrahydropyrido[2,3-b]pyrazin-7-yl}-N-pyridin-3-ylmethylbenzamide] | 100 to 1000 |
| O=C(c1cccc(-c2cnc3c(c2)N(Cc2cc(Cl)ccc2C(F)(F)F)CCN3)c1)N1CCN(c2nccc3occc23)CC1 [Example 324, (3-{1-[5-Chloro-2-(trifluoromethyl)benzyl]-1,2,3,4-tetrahydropyrido[2,3-b]pyrazin-7-yl}phenyl)-(4-furo[3,2-c]pyridin-4-ylpiperazin-1-yl)methanone] | 100 to 1000 |
| O=C(NCc1ccccc1)c1ccc(-c2cnc3c(c2)N(Cc2cc(Cl)ccc2C(F)(F)F)CCN3)cc1 [Example 421, N-Benzyl-4-{1-[5-chloro-2-(trifluoromethyl)benzyl]-1,2,3,4-tetrahydropyrido[2,3-b]pyrazin-7-yl}benzamide] | 100 to 1000 |
| O=C(NCc1ccc(OC(F)(F)F)cc1)c1cccc(-c2cnc3c(c2)N(Cc2cc(Cl)ccc2C(F)(F)F)CCN3)c1 [Example 331, 3-{1-[5-Chloro-2-(trifluoromethyl)benzyl]-1,2,3,4-tetrahydropyrido[2,3-b]pyrazin-7-yl}-N-[4-(trifluoromethoxy)benzyl]benzamide] | 1000 to 10000 |
| O=C(c1cccc(-c2cnc3c(c2)N(Cc2cc(Cl)ccc2C(F)(F)F)CCN3)c1)N1CCN(c2ccc(Cl)c(Cl)c2)CC1 [Example 317, (3-{1-[5-Chloro-2-(trifluoromethyl)benzyl]-1,2,3,4-tetrahydropyrido[2,3-b]pyrazin-7-yl}phenyl)-[4-(3,4-dichlorophenyl)piperazin-1-yl]methanone] | 100 to 1000 |
| O=C(c1ccccc1)N1CCN(C(=O)c2ccc(-c3cnc4c(c3)N(Cc3cc(Cl)ccc3C(F)(F)F)CCN4)cc2)CC1 [Example 385, (4-Benzoylpiperazin-1-yl)-(4-{1-[5-chloro-2-(trifluoromethyl)benzyl]-1,2,3,4-tetrahydropyrido[2,3-b]pyrazin-7-yl}phenyl)methanone] | < 100 |
| O=C(c1ccc(-c2cnc3c(c2)N(Cc2cc(Cl)ccc2C(F)(F)F)CCN3)cc1)N1CCC(c2ccccc2)CC1 [Example 375, (4-{1-[5-Chloro-2-(trifluoromethyl)benzyl]-1,2,3,4-tetrahydropyrido[2,3-b]pyrazin-7-yl}phenyl)-(4-phenylpiperidin-1-yl)methanone] | 100 to 1000 |
| COc1ccccc1CN(C)C(=O)c1ccc(-c2cnc3c(c2)N(Cc2cc(Cl)ccc2C(F)(F)F)CCN3)cc1 [Example 432, 4-{1-[5-Chloro-2-(trifluoromethyl)benzyl]-1,2,3,4-tetrahydropyrido[2,3-b]pyrazin-7-yl}-N-(2-methoxybenzyl)-N-methylbenzamide] | 100 to 1000 |
| COc1ccccc1N1CCN(C(=O)c2ccc(-c3cnc4c(c3)N(Cc3cc(Cl)ccc3C(F)(F)F)CCN4)cc2)CC1 [Example 373, (4-{1-[5-Chloro-2-(trifluoromethyl)benzyl]-1,2,3,4-tetrahydropyrido[2,3-b]pyrazin-7-yl}phenyl)-[4-(2-methoxyphenyl)piperazin-1-yl]methanone] | 100 to 1000 |
| COc1ccc(CN2CCN(C(=O)c3ccc(-c4cnc5c(c4)N(Cc4cc(Cl)ccc4C(F)(F)F)CCN5)cc3)CC2)cc1 [Example 384, (4-{1-[5-Chloro-2-(trifluoromethyl)benzyl]-1,2,3,4-tetrahydropyrido[2,3-b]pyrazin-7-yl}phenyl)-[4-(4-methoxybenzyl)piperazin-1-yl]methanone] | 100 to 1000 |
| O=C(NCc1cccnc1)c1cccc(-c2cnc3c(c2)N(Cc2cc(Cl)ccc2C(F)(F)F)CCN3)c1 [Example 335, 3-{1-[5-Chloro-2-(trifluoromethyl)benzyl]-1,2,3,4-tetrahydropyrido[2,3-b]pyrazin-7-yl}-N-pyridin-3-ylmethylbenzamide] | 100 to 1000 |
| COc1cccc(CNC(=O)c2cccc(-c3cnc4c(c3)N(Cc3cc(Cl)ccc3C(F)(F)F)CCN4)c2)c1 [Example 353, 3-{1-[5-Chloro-2-(trifluoromethyl)benzyl]-1,2,3,4-tetrahydropyrido[2,3-b]pyrazin-7-yl}-N-(3-methoxybenzyl)benzamide] | 1000 to 10000 |
| O=C(NCC1CCCO1)c1ccc(-c2cnc3c(c2)N(Cc2cc(Cl)ccc2C(F)(F)F)CCN3)cc1 (centres unmarked) [Example 417, 4-{1-[5-Chloro-2-(trifluoromethyl)benzyl]-1,2,3,4-tetrahydropyrido[2,3-b]pyrazin-7-yl}-N-(tetrahydrofuran-2-ylmethyl)benzamide] | 100 to 1000 |
| O=C(c1cccc(-c2cnc3c(c2)N(Cc2cc(Cl)ccc2C(F)(F)F)CCN3)c1)N1CCN(c2ncnc3ccsc23)CC1 [Example 320, (3-{1-[5-Chloro-2-(trifluoromethyl)benzyl]-1,2,3,4-tetrahydropyrido[2,3-b]pyrazin-7-yl}phenyl)-(4-thieno[3,2-d]pyrimidin-4-ylpiperazin-1-yl)methanone] | 100 to 1000 |
| O=C(NCC(c1ccccc1)c1ccccc1)c1cccc(-c2cnc3c(c2)N(Cc2cc(Cl)ccc2C(F)(F)F)CCN3)c1 [Example 328, 3-{1-[5-Chloro-2-(trifluoromethyl)benzyl]-1,2,3,4-tetrahydropyrido[2,3-b]pyrazin-7-yl}-N-(2,2-diphenylethyl)benzamide] | 100 to 1000 |
| COCCNC(=O)c1ccc(-c2cnc3c(c2)N(Cc2cc(Cl)ccc2C(F)(F)F)CCN3)cc1 [Example 404, 4-{1-[5-Chloro-2-(trifluoromethyl)benzyl]-1,2,3,4-tetrahydropyrido[2,3-b]pyrazin-7-yl}-N-(2-methoxyethyl)benzamide] | < 100 |
| O=C(c1cccc(-c2cnc3c(c2)N(Cc2cc(Cl)ccc2C(F)(F)F)CCN3)c1)N1CCC2(CC1)C(=O)NCN2c1ccccc1 [Example 318, 8-(3-{1-[5-Chloro-2-(trifluoromethyl)benzyl]-1,2,3,4-tetrahydropyrido[2,3-b]pyrazin-7-yl}benzoyl)-1-phenyl-1,3,8-triaza-spiro[4.5]decan-4-one] | 100 to 1000 |
| COc1ccc(CNC(=O)c2cccc(-c3cnc4c(c3)N(Cc3cc(Cl)ccc3C(F)(F)F)CCN4)c2)cc1 [Example 354, 3-{1-[5-Chloro-2-(trifluoromethyl)benzyl]-1,2,3,4-tetrahydropyrido[2,3-b]pyrazin-7-yl}-N-(4-methoxybenzyl)benzamide] | 100 to 1000 |
| O=C(NCc1ccc(OC(F)(F)F)cc1)c1ccc(-c2cnc3c(c2)N(Cc2cc(Cl)ccc2C(F)(F)F)CCN3)cc1 [Example 395, 4-{1-[5-Chloro-2-(trifluoromethyl)benzyl]-1,2,3,4-tetrahydropyrido[2,3-b]pyrazin-7-yl}-N-[4-(trifluoromethoxy)benzyl]benzamide] | 100 to 1000 |
| COc1cccc(CNC(=O)c2ccc(-c3cnc4c(c3)N(Cc3cc(Cl)ccc3C(F)(F)F)CCN4)cc2)c1 [Example 418, 4-{1-[5-Chloro-2-(trifluoromethyl)benzyl]-1,2,3,4-tetrahydropyrido[2,3-b]pyrazin-7-yl}-N-(3-methoxybenzyl)benzamide] | 100 to 1000 |
| O=C(NC1CCCCC1)c1cccc(-c2cnc3c(c2)N(Cc2cc(Cl)ccc2C(F)(F)F)CCN3)c1 [Example 346, 3-{1-[5-Chloro-2-(trifluoromethyl)benzyl]-1,2,3,4-tetrahydropyrido[2,3-b]pyrazin-7-yl}-N-cyclohexylbenzamide] | 100 to 1000 |
